Patent US9062026B2, “Fused pyrimidines and substituted quinazolines as inhibitors of p97” (Cleave Biosciences, Inc., priority 2012, dated 2015)
pIC50: −log10 of the molar value.

The molecules below were run against p97 (Homo sapiens (Human), UniProt P55072) (assay: P97 ATPase biochem assay (ADP Glo)). Details: 20 nM p97, 20 μM ATP, 37° C., 15 minutes; read-out: p97 biochem IC50.
Format: biochemical
Protocol: The ATPase assay is performed according the following protocol: Purified enzyme (20 nM p97), substrate (20 μM ATP) and a dose titration of compounds are mixed in buffer (50 mM TRIS pH 7.5, 20 mM MgCl2, 0.02% TX-100, 1 mM DTT, 0.2% (v/v) glycerol) and incubated at 37° C. for 15 minutes. The reaction is terminated and the level of product generated is measured using the ADP Glo Assay Kit (Promega, Madison Wis.). Plotting product generated versus compound concentration and using a four-parameter fit model generates an IC50 value for each compounds.

Sequence of p97 (P55072 whole entry): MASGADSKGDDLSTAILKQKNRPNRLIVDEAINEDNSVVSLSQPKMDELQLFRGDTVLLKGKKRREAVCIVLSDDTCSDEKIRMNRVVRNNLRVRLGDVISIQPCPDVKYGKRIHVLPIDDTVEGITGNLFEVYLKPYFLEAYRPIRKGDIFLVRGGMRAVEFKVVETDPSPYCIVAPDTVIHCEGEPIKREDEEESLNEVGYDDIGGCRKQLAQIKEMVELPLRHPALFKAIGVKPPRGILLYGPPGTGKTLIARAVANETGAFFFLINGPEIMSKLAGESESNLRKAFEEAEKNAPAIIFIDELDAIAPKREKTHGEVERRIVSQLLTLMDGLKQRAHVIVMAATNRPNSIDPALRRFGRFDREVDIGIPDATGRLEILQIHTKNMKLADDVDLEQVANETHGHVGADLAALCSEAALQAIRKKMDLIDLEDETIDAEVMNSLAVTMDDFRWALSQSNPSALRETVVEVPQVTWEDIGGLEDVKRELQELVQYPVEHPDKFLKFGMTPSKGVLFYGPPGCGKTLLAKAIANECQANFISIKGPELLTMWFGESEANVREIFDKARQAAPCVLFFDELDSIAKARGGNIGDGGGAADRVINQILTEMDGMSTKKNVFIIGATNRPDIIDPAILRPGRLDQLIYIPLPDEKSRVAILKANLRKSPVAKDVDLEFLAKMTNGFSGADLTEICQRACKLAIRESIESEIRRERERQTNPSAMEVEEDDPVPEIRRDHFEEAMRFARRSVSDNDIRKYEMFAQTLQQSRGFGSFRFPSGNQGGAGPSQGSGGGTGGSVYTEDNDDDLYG

pIC50	SMILES
> 5.70	COc1cccc2c(NCc3ccccc3)nc(-n3c(OC)cc4ccccc43)nc12 [drawing 204]
> 5.70	NCc1cc2ccccc2n1-c1nc2c(c(NCc3ccccc3)n1)CCCC2 [drawing 219]
> 5.70	COCCOc1cccc2c(NCc3ccccc3)nc(-n3c(OC)nc4ccccc43)nc12 [drawing 222]
> 5.70	COc1cccc2c(NCc3ccccc3)nc(-n3c(CNC(C)=O)cc4ccccc43)nc12 [drawing 223]

Continued, molecule first:

SMILES	pIC50
COc1cccc2c(NCc3ccccc3)nc(-n3c(C)nc(C)c3C)nc12	> 4.60
CCC1=NC(C)=C(C)C1c1nc(NCc2ccccc2)c2cccc(OC)c2n1 (stereo not shown)	> 4.60
Nc1nc2ccccc2n1-c1nc(NCc2ccccc2)c2nc[nH]c2n1	> 5.30
Nc1nc2ccccc2n1-c1nc2c(c(NCc3ccccc3)n1)CCC2	> 5.70
COCc1nc(-n2c(N)nc3ccccc32)nc(NCc2ccccc2)c1C	> 5.30
COc1cccc2c(NCc3ccccc3)nc(Nc3ncc[nH]3)nc12	> 5.00
CNc1nc2ccccc2n1-c1nc(NCc2ccccc2)c2cccc(OC)c2n1	> 5.70
COc1cccc2c(NCc3ccccc3)nc(-n3c(N(C)C)nc4ccccc43)nc12	> 5.70
COc1cccc2c(NCc3ccccc3)nc(-n3c(NC(C)=O)nc4ccccc43)nc12	> 5.30
COc1cccc2c(NCc3ccccc3)nc(-c3c(N)[nH]c4ccccc34)nc12	> 5.70
COc1cccc2c(NCc3ccccc3)nc(N3c4ccccc4CC3C)nc12 (stereo not shown)	> 5.30
COc1cccc2c(NCc3ccccc3)nc(N(C(N)=O)c3ccccc3)nc12	> 5.30
COc1cccc2c(NCc3ccccc3)nc(N3C(=O)Cc4ccccc43)nc12	> 5.70
COc1cccc2c(NCc3ccco3)nc(-n3c(N)nc4ccccc43)nc12	> 5.30
COc1cccc2c(NCc3ccoc3)nc(-n3c(N)nc4ccccc43)nc12	> 5.30
COc1cccc2c(NCc3ccccc3)nc(-n3c(=O)[nH]c4ccccc43)nc12	> 5.70
COc1cccc2c(NCc3ccccc3)nc(-n3c(=O)n(C)c4ccccc43)nc12	> 5.30
COc1cccc2c(NCc3ccccc3)nc(-n3c(CN)nc4sccc43)nc12	> 5.70
COc1cccc2c(NCc3ccccc3)nc(-n3c(C)cc4ccccc43)nc12	> 5.70
COc1cccc2c(NCc3ccccc3)nc(C(C)c3ccccc3)nc12 (stereo not shown)	> 5.00
COc1cccc2c(NCc3ccccc3)nc(C3NCc4ccccc43)nc12 (stereo not shown)	> 5.30
COc1cccc2c(NCc3ccccc3)nc(C3CNc4ccccc43)nc12 (stereo not shown)	> 5.70
COC1=Nc2ccccc2C1c1nc(NCc2ccc(F)cc2)c2cccc(OC)c2n1 (stereo not shown)	> 5.70
COc1nc2ccccc2n1-c1nc2c(c(NCc3ccccc3)n1)CNCC2	> 5.70
Cc1cc2ccccc2n1-c1nc2c(c(NCc3ccccc3)n1)CNCC2	> 5.70
Cc1cc2ccccc2n1-c1nc2c(c(NCc3ccccc3)n1)CCNC2	> 5.70
COc1nc2ccccc2n1-c1nc(NCc2ccccc2)c2c(n1)C(=O)NCC2	> 5.30
Cc1cc2ccccc2n1-c1nc2c(c(NCc3ccccc3)n1)CNC2	> 5.70
COc1cccc2c(NCc3ccccc3)nc(C3c4ccccc4CN3C)nc12 (stereo not shown)	> 5.00

Same assay, conditions: read-out: p97 IC50

pIC50	SMILES
> 7.00	COc1cccc2c(NCc3ccccc3)nc(-n3c(/C=C(/C#N)C(N)=O)cc4ccccc43)nc12 [(2Z)-3-{1-[4-(benzylamino)-8-methoxyquinazolin-2-yl]-1H-indol-2-yl}-2-cyanoprop-2-enamide]
> 6.52	COc1cccc2c(NCc3ccccc3)nc(-n3c(/C=C\C#N)cc4ccccc43)nc12 [(2Z)-3-{1-[4-(benzylamino)-8-methoxyquinazolin-2-yl]-1H-indol-2-yl}prop-2-enenitrile]
> 7.00	COCCOc1cccc2c(NCc3ccccc3)nc(-n3c(CNC(N)=O)cc4ccccc43)nc12 [({1-[4-(benzylamino)-8-(2-methoxyethoxy)quinazolin-2-yl]-1H-indol-2-yl}methyl)urea]
> 7.00	C#CC(=O)NCc1cc2ccccc2n1-c1nc2c(c(NCc3ccccc3)n1)CCCC2 [N-({1-[4-(benzylamino)-5,6,7,8-tetrahydroquinazolin-2-yl]-1H-indol-2-yl}methyl)prop-2-ynamide]
> 7.00	COCCOc1cccc2c(NCc3ccccc3)nc(-n3c(CNS(C)(=O)=O)cc4ccccc43)nc12 [N-({1-[4-(benzylamino)-8-(2-methoxyethoxy)quinazolin-2-yl]-1H-indol-2-yl}methyl)methanesulfonamide]
> 6.52	COc1cccc2c(NCc3ccccc3)nc(-n3c(CNC(C)=O)cc4ccccc43)nc12 [N-({1-[4-(benzylamino)-8-methoxyquinazolin-2-yl]-1H-indol-2-yl}methyl)acetamide]
> 6.52	Clc1cc2ccccc2n1-c1nc2c(c(NCc3ccccc3)n1)CNCC2 [N-benzyl-2-(2-chloro-1H-indol-1-yl)-5H,6H,7H,8H-pyrido[4,3-d]pyrimidin-4-amine]
> 7.00	COCCOc1cccc2c(NCc3ccccc3)nc(-n3c(OC)cc4ccccc43)nc12 [N-benzyl-2-(2-methoxy-1H-indol-1-yl)-8-(2-methoxyethoxy)quinazolin-4-amine]
> 6.52	Cc1nc2ccccc2n1-c1nc2c(c(NCc3ccccc3)n1)CCCC2 [N-benzyl-2-(2-methyl-1H-1,3-benzodiazol-1-yl)-5,6,7,8-tetrahydroquinazolin-4-amine]
> 6.52	Cc1cc2ccccc2n1-c1nc2c(c(NCc3ccccc3)n1)COCC2 [N-benzyl-2-(2-methyl-1H-indol-1-yl)-5H,7H,8H-pyrano[4,3-d]pyrimidin-4-amine]
> 6.52	Cc1cc2ccccc2n1-c1nc2c(c(NCc3ccccc3)n1)CN(C(C)C)CC2 [N-benzyl-2-(2-methyl-1H-indol-1-yl)-6-(propan-2-yl)-5H,6H,7H,8H-pyrido[4,3-d]pyrimidin-4-amine]
> 6.52	Cc1[nH]c2ccccc2c1-c1nc2c(c(NCc3ccccc3)n1)CCCC2 [N-benzyl-2-(2-methyl-1H-indol-3-yl)-5,6,7,8-tetrahydroquinazolin-4-amine]
> 6.52	Cc1cc2c(Cl)cccc2n1-c1nc2c(c(NCc3ccccc3)n1)CNCC2 [N-benzyl-2-(4-chloro-2-methyl-1H-indol-1-yl)-5H,6H,7H,8H-pyrido[4,3-d]pyrimidin-4-amine]
> 6.52	c1ccc(CNc2nc(-n3c(N4CCOCC4)nc4ccccc43)nc3c2CCCC3)cc1 [N-benzyl-2-[2-(morpholin-4-yl)-1H-1,3-benzodiazol-1-yl]-5,6,7,8-tetrahydroquinazolin-4-amine]
> 6.52	c1ccc(CNc2nc(-n3c(CN4CCOCC4)cc4ccccc43)nc3c2CCCC3)cc1 [N-benzyl-2-[2-(morpholin-4-ylmethyl)-1H-indol-1-yl]-5,6,7,8-tetrahydroquinazolin-4-amine]
> 7.00	COCCOc1cccc2c(NCc3ccccc3)nc(-n3c(CN(C)C)cc4ccccc43)nc12 [N-benzyl-2-{2-[(dimethylamino)methyl]-1H-indol-1-yl}-8-(2-methoxyethoxy)quinazolin-4-amine]
> 6.52	Cc1nc2ccccn2c1-c1nc2c(c(NCc3ccccc3)n1)CCCC2 [N-benzyl-2-{2-methylimidazo[1,2-a]pyridin-3-yl}-5,6,7,8-tetrahydroquinazolin-4-amine]
> 6.52	COCCOc1cccc2c(NCc3ccccc3)nc(-n3c(C)nc4ccccc43)nc12 [N-benzyl-8-(2-methoxyethoxy)-2-(2-methyl-1H-1,3-benzodiazol-1-yl)quinazolin-4-amine]
> 7.00	COc1cccc2c(NCc3ccccc3)nc(-c3c(C)[nH]c4ccccc34)nc12 [N-benzyl-8-methoxy-2-(2-methyl-1H-indol-3-yl)quinazolin-4-amine]

The next lines start with the molecule.

SMILES	pIC50
Cc1cc2c(C#N)cccc2n1-c1nc2c(c(NCc3ccccc3)n1)CCCC2 [1-[4-(benzylamino)-5,6,7,8-tetrahydroquinazolin-2-yl]-2-methyl-1H-indole-4-carbonitrile]	> 7.00
COc1cc2c(C#N)cccc2n1-c1nc2c(c(NCc3ccccc3)n1)CNCC2 [1-[4-(benzylamino)-5H,6H,7H,8H-pyrido[4,3-d]pyrimidin-2-yl]-2-methoxy-1H-indole-4-carbonitrile]	> 6.52
Cc1cc2c(C#N)cccc2n1-c1nc2c(c(NCc3ccccc3)n1)COCC2 [1-[4-(benzylamino)-5H,7H,8H-pyrano[4,3-d]pyrimidin-2-yl]-2-methyl-1H-indole-4-carbonitrile]	> 7.00
COCC(=O)N1CCc2nc(-n3c(C)cc4c(C#N)cccc43)nc(NCc3ccccc3)c2C1 [1-[4-(benzylamino)-6-(2-methoxyacetyl)-5H,6H,7H,8H-pyrido[4,3-d]pyrimidin-2-yl]-2-methyl-1H-indole-4-carbonitrile]	> 7.52
CCN1CCc2nc(-n3c(C)cc4c(C#N)cccc43)nc(NCc3ccccc3)c2C1 [1-[4-(benzylamino)-6-ethyl-5H,6H,7H,8H-pyrido[4,3-d]pyrimidin-2-yl]-2-methyl-1H-indole-4-carbonitrile]	> 7.00
COCCOc1cccc2c(NCc3ccccc3)nc(-n3c(OC)cc4c(C#N)cccc43)nc12 [1-[4-(benzylamino)-8-(2-methoxyethoxy)quinazolin-2-yl]-2-methoxy-1H-indole-4-carbonitrile]	> 7.00
COCCOc1cccc2c(NCc3ccccc3)nc(-n3c(C)cc4c(C#N)cccc43)nc12 [1-[4-(benzylamino)-8-(2-methoxyethoxy)quinazolin-2-yl]-2-methyl-1H-indole-4-carbonitrile]	> 7.52
COCCOc1cccc2c(NCc3ccccc3)nc(-n3c(C(C)N)cc4ccccc43)nc12 (stereo not shown) [2-[2-(1-aminoethyl)-1H-indol-1-yl]-N-benzyl-8-(2-methoxyethoxy)quinazolin-4-amine]	> 6.52
COc1cccc2c(NCc3ccccc3)nc(-n3c(/C=C/C#N)cc4ccccc43)nc12 [(2E)-3-{1-[4-(benzylamino)-8-methoxyquinazolin-2-yl]-1H-indol-2-yl)prop-2-enenitrile]	> 6.52
